Test results as given in PubChem BioAssay AID296 (DTP/NCI, 2004).
Values joined by “and” are separate entries in the source; they are usually repeats but may differ in a detail not shown here. Equal entries are not always repeated. Results filed as inconclusive are left out.

Test system: MX-1 breast xenograft, nude mice, tumor weight T/C
Test: NCI In Vivo Anticancer Drug Screen. Data for tumor model Human Mammary Carcinoma MX-1 Xenograft (intrarenal inoculation) in NU/NU Swiss (nude) mice
Details: endpoint: mean tumor weight change, higher = larger tumour
Outline: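 Activity is given as a ratio, with each measurement in the compound-treated arm divided by the matching measurement in vehicle-dosed controls. Tumour size or survival serves as the measured parameter.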

[1] = dose: 150.0 mg/kg/injection, schedule: Q04DX003 (sc), vehicle: Klucel (hydroxypropylcellulose) (HPC)
[2] = dose: 300.0 mg/kg/injection, schedule: Q04DX003 (sc), vehicle: Klucel (hydroxypropylcellulose) (HPC)
[3] = dose: 600.0 mg/kg/injection, schedule: Q04DX003 (sc), vehicle: Klucel (hydroxypropylcellulose) (HPC)
[4] = dose: 1200.0 mg/kg/injection, schedule: Q04DX003 (sc), vehicle: Klucel (hydroxypropylcellulose) (HPC)
[5] = dose: 50.0 mg/kg/injection, schedule: Q01DX010 (sc), vehicle: saline with Tween-80
[6] = dose: 100.0 mg/kg/injection, schedule: Q01DX010 (sc), vehicle: saline with Tween-80
[7] = dose: 150.0 mg/kg/injection, schedule: Q04DX003 (sc), vehicle: saline with Tween-80
[8] = dose: 300.0 mg/kg/injection, schedule: Q04DX003 (sc), vehicle: saline with Tween-80
[9] = dose: 600.0 mg/kg/injection, schedule: Q04DX003 (sc), vehicle: saline with Tween-80
[10] = dose: 200.0 mg/kg/injection, schedule: Q04DX003 (sc), vehicle: saline
[11] = dose: 200.0 mg/kg/injection, schedule: Q01DX010 (sc), vehicle: water
[12] = dose: 12.5 mg/kg/injection, schedule: Q01DX010 (sc), vehicle: saline with Tween-80

C[C@@H]1C[C@@H]([C@H](O)CC2CC(=O)NC(=O)C2)C(=O)[C@@H](C)C1
T/C (dose: 37.5 mg/kg/injection, schedule: Q04DX003 (sc), vehicle: saline): 105 % of control
T/C (dose: 75.0 mg/kg/injection, schedule: Q04DX003 (sc), vehicle: saline): 69 % of control
T/C (dose: 150.0 mg/kg/injection, schedule: Q04DX003 (sc), vehicle: saline): 97 % of control

CCNC(C)(C)C(SSS)c1ccco1 (stereo unspecified)
T/C [1]: 102 % of control
T/C [2]: 97 % of control
T/C [3]: 80 % of control
T/C [4]: 86 % of control

C1CC[N-]CC1.[Cl][Pt+2][Cl].[NH-]C1CC1
T/C (dose: 25.0 mg/kg/injection, schedule: Q04DX003 (sc), vehicle: water): 60 % of control
T/C (dose: 50.0 mg/kg/injection, schedule: Q04DX003 (sc), vehicle: Klucel (hydroxypropylcellulose) (HPC)): 34 % of control and 55 % of control
T/C (dose: 50.0 mg/kg/injection, schedule: Q04DX003 (sc), vehicle: water): 11 % of control
T/C (dose: 100.0 mg/kg/injection, schedule: Q04DX003 (sc), vehicle: water): -83 % of control

Cc1cc(N2C(=O)CCSC2=S)ccc1Cl
T/C [1]: 169 % of control
T/C [2]: 90 % of control
T/C [3]: 63 % of control
T/C [4]: 96 % of control

C1OC1CO[C@@H]1CO[C@H]2[C@@H]1OC[C@H]2OCC1CO1 (stereo partly specified)
T/C [5]: 45 % of control
T/C [6]: 112 % of control
T/C (dose: 200.0 mg/kg/injection, schedule: Q01DX010 (sc), vehicle: saline with Tween-80): 24 % of control

CO[C@@H]1[C@H](O)CC[C@]2(CO2)[C@H]1[C@@]1(C)O[C@@H]1CC=C(C)C
T/C [7]: 150 % of control
T/C [8]: 79 % of control
T/C [9]: 99 % of control
T/C (dose: 1200.0 mg/kg/injection, schedule: Q04DX003 (sc), vehicle: saline with Tween-80): 96 % of control

Cn1c2ccccc2c2ccc3c(c21)C(=O)C=CC3=O
T/C (dose: 75.0 mg/kg/injection, schedule: Q04DX003 (sc), vehicle: saline with Tween-80): 62 % of control
T/C [7]: 61 % of control
T/C [8]: 117 % of control
T/C [9]: 88 % of control

CC(Cc1ccc(O)c(O)c1)C(C)Cc1ccc(O)c(O)c1 (stereo unspecified)
T/C (dose: 150.0 mg/kg/injection, schedule: Q04DX003 (sc), vehicle: saline + alcohol): 109 % of control
T/C (dose: 300.0 mg/kg/injection, schedule: Q04DX003 (sc), vehicle: saline + alcohol): 92 % of control
T/C (dose: 1200.0 mg/kg/injection, schedule: Q04DX003 (sc), vehicle: saline + alcohol): 92 % of control

Cc1cc(NCCCCCCNc2cc(C)nc3cc(N(C)C)ccc23)c2ccc(N(C)C)cc2n1
T/C (dose: 37.5 mg/kg/injection, schedule: Q04DX003 (sc), vehicle: distilled water + Tween-80 + alcohol): 34 % of control
T/C (dose: 75.0 mg/kg/injection, schedule: Q04DX003 (sc), vehicle: distilled water + Tween-80 + alcohol): 49 % of control
T/C (dose: 150.0 mg/kg/injection, schedule: Q04DX003 (sc), vehicle: distilled water + Tween-80 + alcohol): 49 % of control
T/C (dose: 300.0 mg/kg/injection, schedule: Q04DX003 (sc), vehicle: distilled water + Tween-80 + alcohol): 30 % of control

CC1(C)COCN1COC1CCCCC1
T/C (dose: 100.0 mg/kg/injection, schedule: Q04DX003 (sc), vehicle: saline): 24 % of control
T/C [10]: 32 % of control
T/C (dose: 400.0 mg/kg/injection, schedule: Q04DX003 (sc), vehicle: saline): 78 % of control
T/C (dose: 800.0 mg/kg/injection, schedule: Q04DX003 (sc), vehicle: saline): 56 % of control

COc1cccc2c1C(=O)c1c(O)c3c(c(O)c1C2=O)C[C@H](O)C[C@@H]3OC1CC(N)C(O)C(C)O1 (stereo partly specified)
T/C (dose: 3.12 mg/kg/injection, schedule: Q01DX010 (sc), vehicle: saline): 165 % of control
T/C (dose: 6.25 mg/kg/injection, schedule: Q01DX010 (sc), vehicle: saline): 83 % of control
T/C (dose: 12.5 mg/kg/injection, schedule: Q01DX010 (sc), vehicle: saline): 66 % of control
T/C (dose: 25.0 mg/kg/injection, schedule: Q01DX010 (sc), vehicle: saline): 81 % of control

CNC(=O)ON(C(C)=O)C(=O)NC
T/C (dose: 50.0 mg/kg/injection, schedule: Q04DX003 (sc), vehicle: saline): 69 % of control
T/C (dose: 100.0 mg/kg/injection, schedule: Q01DX010 (sc), vehicle: water): 108 % of control
T/C (dose: 150.0 mg/kg/injection, schedule: Q01DX010 (sc), vehicle: water): 67 % of control
T/C [11]: 85 % of control
T/C [10]: 16 % of control

COC1=CC(=O)C(OC)=C(OC)C1=O
T/C (dose: 37.5 mg/kg/injection, schedule: Q04DX003 (sc), vehicle: saline with Tween-80): 86 % of control
T/C [7]: 93 % of control

Cc1cc(N(CC(C)Br)CC(C)Br)ccc1N=Nc1ccccc1C(=O)O (stereo unspecified)
T/C (dose: 3.13 mg/kg/injection, schedule: Q01DX010 (sc), vehicle: saline with Tween-80): 10 % of control and 12 % of control
T/C (dose: 6.25 mg/kg/injection, schedule: Q01DX010 (sc), vehicle: saline with Tween-80): -46 % of control
T/C [12]: -79 % of control

CCCCCC(=O)O[C@]1(C(C)=O)CC[C@H]2[C@@H]3CCC4=CC(=O)CC[C@]4(C)[C@H]3CC[C@@]21C
T/C [3]: 98 % of control
T/C (dose: 2400.0 mg/kg/injection, schedule: Q04DX003 (sc), vehicle: Klucel (hydroxypropylcellulose) (HPC)): 85 % of control

CN(C)c1ccc(C(=C2C=CC(=[N+](C)C)C=C2)c2ccc(N(C)C)cc2)cc1 (tested in a mixture with another compound)
T/C (dose: 15.0 mg/kg/injection, schedule: Q04DX003 (sc), vehicle: saline with Tween-80): 70 % of control
T/C (dose: 30.0 mg/kg/injection, schedule: Q04DX003 (sc), vehicle: saline with Tween-80): 104 % of control
T/C (dose: 60.0 mg/kg/injection, schedule: Q04DX003 (sc), vehicle: saline with Tween-80): 97 % of control
T/C (dose: 120.0 mg/kg/injection, schedule: Q04DX003 (sc), vehicle: saline with Tween-80): 82 % of control

CCNC(=O)OCc1c(COC(=O)NCC)c(-c2ccc(Cl)c(Cl)c2)n2c1CCC2
T/C [12]: 46 % of control
T/C (dose: 25.0 mg/kg/injection, schedule: Q01DX010 (sc), vehicle: saline with Tween-80): 10 % of control
T/C [5]: 3 % of control and 8 % of control
T/C [6]: 4 % of control

O=C(O)c1c2c(nc3ccccc13)Cc1ccccc1-2
T/C (dose: 25.0 mg/kg/injection, schedule: Q01DX010 (sc), vehicle: water): 108 % of control
T/C [11]: 46 % of control

COc1cccc2c1C(=O)c1c(O)c3c(c(O)c1C2=O)C[C@@](O)(C(=O)CO)C[C@@H]3OC1CC(N)C(OC)C(C)O1 (stereo partly specified)
T/C (dose: 1.5 mg/kg/injection, schedule: Q01DX010 (sc), vehicle: saline): 54 % of control

CC(=O)Oc1ccc[nH]c1=O
T/C (dose: 200.0 mg/kg/injection, schedule: Q04DX003 (sc), vehicle: saline with Tween-80): 111 % of control
T/C (dose: 400.0 mg/kg/injection, schedule: Q04DX003 (sc), vehicle: saline with Tween-80): 100 % of control
T/C (dose: 800.0 mg/kg/injection, schedule: Q04DX003 (sc), vehicle: saline with Tween-80): 114 % of control

O=c1nc(-c2ccco2)sc(=O)[nH]1
T/C (dose: 75.0 mg/kg/injection, schedule: Q04DX003 (sc), vehicle: Klucel (hydroxypropylcellulose) (HPC)): 122 % of control
T/C [1]: 90 % of control
T/C [2]: 54 % of control
T/C [3]: 58 % of control

NC(=O)c1ncn(C2OC(CO)C(O)C2O)n1 (stereo unspecified)
T/C (dose: 225.0 mg/kg/injection, schedule: Q04DX003 (sc), vehicle: saline): 108 % of control
T/C (dose: 450.0 mg/kg/injection, schedule: Q04DX003 (sc), vehicle: saline): 61 % of control
T/C (dose: 900.0 mg/kg/injection, schedule: Q04DX003 (sc), vehicle: saline): 45 % of control

C[Si](C)(C)O/C=C1/CCOC1=O
T/C (dose: 1200.0 mg/kg/injection, schedule: Q04DX003 (sc), vehicle: suspension in saline): 105 % of control
T/C (dose: 2400.0 mg/kg/injection, schedule: Q04DX003 (sc), vehicle: suspension in saline): 157 % of control
